Data on 14 compounds can be found in US9650339B2, “Inhibitors of histone demethylases” (Gilead Sciences, Inc., priority 2013, dated 2017).

Holding throughout (assay type): biochemical
For one assay, the target named is T1, KDM4A (JMJD2A) (Homo sapiens, UniProt O75164).
T1 construct: 1-350; purchased BPS Bioscience, US; host or cells: E. coli
T1 sequence (O75164 1-350): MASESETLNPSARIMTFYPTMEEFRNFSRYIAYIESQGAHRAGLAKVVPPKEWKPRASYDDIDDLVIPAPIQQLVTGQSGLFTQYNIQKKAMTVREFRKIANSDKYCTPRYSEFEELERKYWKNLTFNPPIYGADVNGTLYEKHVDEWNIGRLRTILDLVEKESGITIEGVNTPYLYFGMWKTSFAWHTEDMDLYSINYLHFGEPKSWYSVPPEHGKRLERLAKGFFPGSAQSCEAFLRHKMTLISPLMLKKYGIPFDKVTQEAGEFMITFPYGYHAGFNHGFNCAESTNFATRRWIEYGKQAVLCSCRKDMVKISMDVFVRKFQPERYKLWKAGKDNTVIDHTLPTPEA
The assay can be described thus: Histone lysine demethylase AlphaLISA assay, KDM4A. The settings on record: read-out: KDM4A HDME Inhibition IC50. The gist of the method: (§1)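 Biotinylated methylated H3 peptides (K9, K4, K27 or K36 marks) served as substrate, with 25 μM L-Asc and 10 μM α-KG. Enzymes were preincubated 10 min, then exposed to compounds (3% DMSO solutions) 10 min; product detected by AlphaLISA acceptor and streptavidin donor beads at room temperature in dark.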
(Bead proximity is the source of the signal in Alpha formats.)

For another assay, the target named is T2, KDM5C (JARID1C) (Homo sapiens, UniProt P41229).
T2 construct: 2-1560; purchased BPS; host or cells: Bac (baculovirus system)
As to the kind of experiment: Histone lysine demethylase AlphaLISA assay, KDM5C. The settings on record: read-out: KDM5C HDME Inhibition IC50. Here is the method:
Assays are performed analogously to the protocol described by PerkinElmer (Roy et al. PerkinElmer Technical Note: AlphaLISA #12, April 2011)
Enzymes are dissolved in enzyme buffer and incubated for 10 min before being added to 3% DMSO solutions of compounds in enzyme buffer. Incubated for another 10 minutes, before substrate solution is added and the reaction mixture is incubated at room temperature. 10 μL acceptor beads, suspended in Epigenetic Buffer (Perkin Elmer AL008) from stock, are added and the suspension is incubated in the dark at room temperature, before a suspension of streptavidin donor beads (Perkin Elmer 6760002) in Epigenetic Buffer is added. After incubation at room temperature in the dark the plates are read. […]
H3K4M3B: H-ART(Kme3)QTARKSTGGKAPRKQLA-NH-Biotin (Caslo, Denmark) […]
Substrate Solution: Substrate, 25 μM L-Asc, and 10 μM α-KG in Buffer A.

The next assay concerns the target T3, KDM7 (PHF8) (Homo sapiens, UniProt Q9UPP1).
T3 construct: KDM7 (PHF8); BRIC; 1-1322; Bac
As to the kind of experiment: Histone lysine demethylase AlphaLISA assay, KDM7. The settings on record: read-out: PHF8 HDME Inhibition IC50. Summed up:
as §1

For the next assay, the target named is T4, KDM6B (JMJD3) (Homo sapiens, UniProt O15054).
T4 construct: 1043-end; purchased BPS; host or cells: Bac (baculovirus system)
The assay can be described thus: Histone lysine demethylase AlphaLISA assay, KDM6B. The settings on record: read-out: KDM6B HDME Inhibition IC50. Summed up:
as §1

Another assay deals with T5, KDM4C (JMJD2C) (Homo sapiens, UniProt Q9H3R0).
T5 sequence (Q9H3R0 1-349): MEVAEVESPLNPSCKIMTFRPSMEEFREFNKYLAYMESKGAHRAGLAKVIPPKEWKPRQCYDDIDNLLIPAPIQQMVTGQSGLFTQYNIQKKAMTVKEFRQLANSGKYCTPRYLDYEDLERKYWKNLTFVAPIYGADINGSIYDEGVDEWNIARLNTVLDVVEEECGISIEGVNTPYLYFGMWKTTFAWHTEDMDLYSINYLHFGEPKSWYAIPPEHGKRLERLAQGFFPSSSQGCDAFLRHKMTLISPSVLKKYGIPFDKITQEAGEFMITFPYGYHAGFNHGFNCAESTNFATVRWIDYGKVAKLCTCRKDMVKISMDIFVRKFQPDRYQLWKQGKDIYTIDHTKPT
As to the kind of experiment: Histone lysine demethylase AlphaLISA assay, KDM4C. The settings on record: read-out: KDM4C HDME Inhibition IC50. Summed up:
as §1

For the next assay, the target named is T6, KDM5B (PLU-1) (Homo sapiens, UniProt Q9UGL1).
T6 sequence (Q9UGL1 1-809): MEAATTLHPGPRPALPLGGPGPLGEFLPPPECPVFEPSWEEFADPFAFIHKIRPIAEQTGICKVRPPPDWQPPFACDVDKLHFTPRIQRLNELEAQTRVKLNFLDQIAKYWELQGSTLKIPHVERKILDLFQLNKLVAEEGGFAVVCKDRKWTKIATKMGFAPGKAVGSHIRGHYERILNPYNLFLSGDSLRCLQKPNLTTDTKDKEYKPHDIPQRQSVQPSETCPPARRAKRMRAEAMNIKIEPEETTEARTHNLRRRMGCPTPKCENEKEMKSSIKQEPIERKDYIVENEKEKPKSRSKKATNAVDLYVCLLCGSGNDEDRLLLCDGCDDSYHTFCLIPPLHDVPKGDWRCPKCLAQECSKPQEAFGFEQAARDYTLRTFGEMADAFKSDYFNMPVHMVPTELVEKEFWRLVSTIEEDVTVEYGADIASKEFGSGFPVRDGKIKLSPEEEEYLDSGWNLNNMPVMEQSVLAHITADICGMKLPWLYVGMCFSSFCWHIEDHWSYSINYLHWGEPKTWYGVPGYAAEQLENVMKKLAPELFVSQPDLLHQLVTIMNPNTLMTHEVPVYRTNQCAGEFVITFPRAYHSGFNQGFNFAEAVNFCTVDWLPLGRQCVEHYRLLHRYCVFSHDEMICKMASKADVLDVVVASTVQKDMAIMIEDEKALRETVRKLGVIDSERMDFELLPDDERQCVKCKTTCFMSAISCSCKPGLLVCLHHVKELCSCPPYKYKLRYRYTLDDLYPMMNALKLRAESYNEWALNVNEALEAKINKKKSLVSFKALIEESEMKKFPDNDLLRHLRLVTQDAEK
The assay can be described thus: Histone lysine demethylase AlphaLISA assay, KDM5B. The settings on record: read-out: KDM5B HDME Inhibition IC50. The gist of the method:
as §1

Where only a bound is given, the exact number is not on record here.

T4 sequence (O15054 1043-1682 isoform O15054-1 limits assumed): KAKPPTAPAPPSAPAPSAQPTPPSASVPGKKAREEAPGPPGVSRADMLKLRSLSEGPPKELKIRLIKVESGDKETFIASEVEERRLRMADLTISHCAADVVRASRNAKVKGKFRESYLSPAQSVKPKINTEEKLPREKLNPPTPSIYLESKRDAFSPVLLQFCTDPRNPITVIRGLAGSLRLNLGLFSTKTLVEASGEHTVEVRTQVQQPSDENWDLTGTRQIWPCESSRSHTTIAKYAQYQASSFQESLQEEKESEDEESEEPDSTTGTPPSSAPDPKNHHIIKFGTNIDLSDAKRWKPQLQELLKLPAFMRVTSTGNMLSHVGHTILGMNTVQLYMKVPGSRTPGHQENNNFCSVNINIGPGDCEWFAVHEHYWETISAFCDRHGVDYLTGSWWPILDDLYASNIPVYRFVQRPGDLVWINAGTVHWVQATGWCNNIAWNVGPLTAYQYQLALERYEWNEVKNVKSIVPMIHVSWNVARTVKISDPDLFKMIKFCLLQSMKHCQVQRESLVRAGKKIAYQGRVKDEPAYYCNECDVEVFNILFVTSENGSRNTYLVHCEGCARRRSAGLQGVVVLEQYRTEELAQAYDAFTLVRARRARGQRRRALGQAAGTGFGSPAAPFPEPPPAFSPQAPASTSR
T3 sequence (Q9UPP1 37-440 limits assumed): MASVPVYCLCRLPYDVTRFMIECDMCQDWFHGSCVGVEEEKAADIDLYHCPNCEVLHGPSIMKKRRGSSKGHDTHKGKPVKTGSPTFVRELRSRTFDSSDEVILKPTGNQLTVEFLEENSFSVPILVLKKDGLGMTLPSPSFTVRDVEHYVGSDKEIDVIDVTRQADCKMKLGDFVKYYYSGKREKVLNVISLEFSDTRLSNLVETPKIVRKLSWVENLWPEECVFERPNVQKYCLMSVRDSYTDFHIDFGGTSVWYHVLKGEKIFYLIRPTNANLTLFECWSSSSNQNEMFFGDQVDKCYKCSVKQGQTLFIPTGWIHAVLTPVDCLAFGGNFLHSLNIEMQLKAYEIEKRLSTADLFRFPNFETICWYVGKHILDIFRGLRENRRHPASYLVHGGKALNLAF
T2 sequence (P41229 2-1560): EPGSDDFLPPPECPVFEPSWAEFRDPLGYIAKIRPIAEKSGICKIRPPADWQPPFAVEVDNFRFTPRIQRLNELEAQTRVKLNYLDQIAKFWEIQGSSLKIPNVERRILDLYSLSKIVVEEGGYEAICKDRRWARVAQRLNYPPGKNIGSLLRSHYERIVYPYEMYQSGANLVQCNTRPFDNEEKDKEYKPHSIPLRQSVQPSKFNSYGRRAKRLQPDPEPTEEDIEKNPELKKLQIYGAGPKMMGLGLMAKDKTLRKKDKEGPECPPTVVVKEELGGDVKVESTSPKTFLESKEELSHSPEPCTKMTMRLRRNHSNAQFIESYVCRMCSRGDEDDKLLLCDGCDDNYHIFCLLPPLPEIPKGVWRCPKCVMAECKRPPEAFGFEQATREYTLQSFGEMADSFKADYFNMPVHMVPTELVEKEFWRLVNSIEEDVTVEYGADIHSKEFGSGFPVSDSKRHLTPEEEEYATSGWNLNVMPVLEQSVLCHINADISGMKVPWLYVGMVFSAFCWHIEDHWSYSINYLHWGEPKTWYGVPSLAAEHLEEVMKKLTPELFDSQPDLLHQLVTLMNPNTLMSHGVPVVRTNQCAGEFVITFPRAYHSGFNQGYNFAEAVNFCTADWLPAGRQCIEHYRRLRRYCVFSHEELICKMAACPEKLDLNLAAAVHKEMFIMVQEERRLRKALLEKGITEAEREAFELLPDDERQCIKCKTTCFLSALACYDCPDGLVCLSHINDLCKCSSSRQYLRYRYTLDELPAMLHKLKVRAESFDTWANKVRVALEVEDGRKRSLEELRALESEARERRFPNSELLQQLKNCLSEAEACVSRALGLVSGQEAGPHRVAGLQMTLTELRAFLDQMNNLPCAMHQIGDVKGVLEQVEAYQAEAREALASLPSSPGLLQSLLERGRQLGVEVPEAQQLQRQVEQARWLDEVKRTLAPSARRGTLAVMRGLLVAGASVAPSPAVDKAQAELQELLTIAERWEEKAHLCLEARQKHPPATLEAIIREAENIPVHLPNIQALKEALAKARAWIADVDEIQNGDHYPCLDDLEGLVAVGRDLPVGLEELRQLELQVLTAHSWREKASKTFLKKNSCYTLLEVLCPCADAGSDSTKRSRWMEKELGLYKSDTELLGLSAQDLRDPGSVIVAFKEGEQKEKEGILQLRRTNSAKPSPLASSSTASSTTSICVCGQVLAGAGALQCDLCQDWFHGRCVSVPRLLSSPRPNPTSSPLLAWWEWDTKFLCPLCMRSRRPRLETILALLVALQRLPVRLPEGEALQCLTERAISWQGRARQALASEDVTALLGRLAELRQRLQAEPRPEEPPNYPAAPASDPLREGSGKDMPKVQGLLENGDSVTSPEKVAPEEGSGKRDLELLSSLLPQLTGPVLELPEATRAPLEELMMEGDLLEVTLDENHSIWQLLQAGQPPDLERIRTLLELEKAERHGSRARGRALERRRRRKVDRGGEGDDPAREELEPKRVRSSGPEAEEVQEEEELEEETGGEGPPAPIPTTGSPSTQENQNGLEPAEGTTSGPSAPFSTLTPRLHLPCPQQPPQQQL

The IC50 is the concentration that gives 50% inhibition. With `CN(C)CCCNCc1cc(/C=N/CCN(C)C)ccn1` [Compound 38, ({4-[{[2-(dimethylamino)ethyl]-imino}methyl]pyridin-2-yl}methyl)[3-(dimethylamino)-propyl]amine], the IC50 on KDM4A (JMJD2A) was more than 2.5 µM; on KDM5C (JARID1C) it was less than 0.25 µM; on KDM7 (PHF8), more than 2.5 µM; at KDM6B (JMJD3) it was more than 2.5 µM; on KDM4C (JMJD2C), 0.25 to 2.5 µM; at KDM5B (PLU-1) it was less than 0.25 µM.

On to `CN1CCCC1CCNCc1cc(/C=N/C2CC2)ccn1` (stereo not drawn) [Compound 40, N-{[2-({[2-(l-methylpyrrolidin-2-yl)ethyl]amino}methyl)-pyridin-4-yl]methylidene}-cyclopropanamine], for which the IC50 on KDM4A (JMJD2A) is more than 2.5 µM; on KDM5C (JARID1C), less than 0.25 µM; on KDM7 (PHF8) it was more than 2.5 µM; at KDM6B (JMJD3), more than 2.5 µM; on KDM4C (JMJD2C), more than 2.5 µM; at KDM5B (PLU-1), less than 0.25 µM.

Consider `CCN(CCN(C)C)C(=O)CNCc1cc(/C=N/CCO)ccn1` [Compound 66], for which the IC50 on KDM4A (JMJD2A) was less than 0.25 µM; at KDM5C (JARID1C), less than 0.25 µM; at KDM7 (PHF8), 0.25 to 2.5 µM; on KDM6B (JMJD3) it was more than 2.5 µM; on KDM4C (JMJD2C) it was less than 0.25 µM; at KDM5B (PLU-1), less than 0.25 µM.

`CN(C)CCNCc1ccnc(CNCC(=O)N(C)C)c1` [Compound 15, 2-({[4-({[2-(dimethylamino)ethyl]-amino}methyl)pyridin-2-yl]methyl}amino)-N,N-dimethylacetamide]: the IC50 at KDM4A (JMJD2A) was more than 2.5 µM; on KDM5C (JARID1C), 0.25 to 2.5 µM; on KDM7 (PHF8), more than 2.5 µM; on KDM6B (JMJD3) it was more than 2.5 µM; at KDM4C (JMJD2C) it was 0.25 to 2.5 µM; at KDM5B (PLU-1) it was less than 0.25 µM.

For `CN(C)CCCCNCc1cc(C=O)ccn1` [Compound 108, 2-({[4-(dimethylamino)-butyl]amino}methyl)-pyridine-4-carbaldehyde], the IC50 at KDM4A (JMJD2A) is more than 2.5 µM; on KDM5C (JARID1C) it was less than 0.25 µM; on KDM7 (PHF8), more than 2.5 µM; at KDM6B (JMJD3) it was more than 2.5 µM; on KDM4C (JMJD2C), more than 2.5 µM; on KDM5B (PLU-1), 0.25 to 2.5 µM.

For the compound `O=C(CNCc1cc(/C=N/C2CC2)ccn1)N1CCC(Cc2ccccc2)CC1` [Compound 55, 1-(4-benzylpiperidin-1-yl)-2-[({4-[N-cyclopropyl-carboximidoyl]-pyridin-2-yl}methyl)amino]-ethan-1-one], the IC50 was 0.25 to 2.5 µM at KDM4A (JMJD2A); 0.25 to 2.5 µM at KDM5C (JARID1C); 0.25 to 2.5 µM on KDM7 (PHF8); more than 2.5 µM at KDM6B (JMJD3); 0.25 to 2.5 µM at KDM4C (JMJD2C); less than 0.25 µM at KDM5B (PLU-1).

For the compound `N#CCNCc1ccnc(CNCCCCN(Cc2ccccc2)C2CC2)c1` [Compound 23, 2-[({2-[({4-[benzyl(cyclopropyl)-amino]butyl}amino)-methyl]pyridin-4-yl}methyl)amino]-acetonitrile], the IC50 on KDM4A (JMJD2A) was more than 2.5 µM; at KDM5C (JARID1C) it was less than 0.25 µM; on KDM7 (PHF8) it was more than 2.5 µM; at KDM6B (JMJD3), more than 2.5 µM; at KDM4C (JMJD2C), more than 2.5 µM; at KDM5B (PLU-1) it was 0.25 to 2.5 µM.

Turning to `CNC(C#N)c1ccnc(CNCCCN(C)C)c1` (stereo not drawn) [Compound 24, 2-[2-({[3-(dimethylamino)propyl]-amino}methyl)pyridin-4-yl]-2-(methylamino)-acetonitrile], the IC50 on KDM4A (JMJD2A) is 0.25 to 2.5 µM; at KDM5C (JARID1C), less than 0.25 µM; on KDM7 (PHF8), more than 2.5 µM; at KDM6B (JMJD3), more than 2.5 µM; at KDM4C (JMJD2C), 0.25 to 2.5 µM; at KDM5B (PLU-1), less than 0.25 µM.

`CC1CC1/N=C/c1ccnc(CNCC(=O)N(C)C)c1` (stereo not drawn) [Compound 35, N,N-dimethyl-2-[({4-[N-(2-methylcyclopropyl)-carboximidoyl]pyridin-2-yl}methyl)amino]-acetamide]: the half-inhibitory concentration (IC50) was less than 0.25 µM at KDM4A (JMJD2A); less than 0.25 µM at KDM5C (JARID1C); less than 0.25 µM at KDM7 (PHF8); more than 2.5 µM on KDM6B (JMJD3); 0.25 to 2.5 µM at KDM4C (JMJD2C); 0.25 to 2.5 µM at KDM5B (PLU-1).

For the compound `CCN(CC)CCCCNCc1cc(/C=N/CCOC)ccn1` [Compound 60, [4-(diethylamino)butyl]-({4-[[(2-methoxyethyl)imino]-methyl]pyridin-2-yl}methyl)amine], the IC50 on KDM4A (JMJD2A) was less than 0.25 µM; on KDM5C (JARID1C) it was less than 0.25 µM; on KDM7 (PHF8), 0.25 to 2.5 µM; on KDM6B (JMJD3), more than 2.5 µM; at KDM4C (JMJD2C), more than 2.5 µM; at KDM5B (PLU-1), less than 0.25 µM.

For the compound `CCN(CC)CCCCNCc1cc(/C=N/CCO)ccn1` [Compound 61, 2-[{[2-({[4-(diethylamino)-butyl]amino}-methyl)pyridin-4-yl]methylidene}-amino]ethan-1-ol], the IC50 at KDM4A (JMJD2A) is more than 2.5 µM; at KDM5C (JARID1C), less than 0.25 µM; at KDM7 (PHF8), more than 2.5 µM; on KDM6B (JMJD3), more than 2.5 µM; on KDM4C (JMJD2C), 0.25 to 2.5 µM; at KDM5B (PLU-1) it was less than 0.25 µM.

In the case of `CCN(CC)CCCCNCc1cc(C2NCCN2C)ccn1` (stereo not drawn) [Compound 65, [4-(diethylamino)-butyl]({[4-(1-methylimidazolidin-2-yl)pyridin-2-yl]methyl})amine], the IC50 was more than 2.5 µM on KDM4A (JMJD2A); less than 0.25 µM on KDM5C (JARID1C); more than 2.5 µM on KDM7 (PHF8); more than 2.5 µM on KDM6B (JMJD3); 0.25 to 2.5 µM on KDM4C (JMJD2C); less than 0.25 µM on KDM5B (PLU-1).

Turning to `CN(C)C(=O)CNCc1cc(/C=N/CCC2CCCCC2)ccn1` [Compound 36, 2-[({4-[[(2-cyclohexylethyl)imino]-methyl]pyridin-2-yl}methyl)amino]-N,N-dimethylacetamide], the concentration for half-maximal inhibition (IC50) is 0.25 to 2.5 µM at KDM4A (JMJD2A); less than 0.25 µM on KDM5C (JARID1C); 0.25 to 2.5 µM at KDM7 (PHF8); more than 2.5 µM on KDM6B (JMJD3); 0.25 to 2.5 µM on KDM4C (JMJD2C); less than 0.25 µM at KDM5B (PLU-1).

With `O=C(CNCc1cc(/C=N/C2CC2)ccn1)NC1CCN(Cc2ccccc2)C1` (stereo not drawn) [Compound 53, N-(1-benzylpyrrolidin-3-yl)-2-[({4-[N-cyclopropyl-carboximidoyl]pyridin-2-yl}methyl)amino]-acetamide], the IC50 at KDM4A (JMJD2A) is less than 0.25 µM; at KDM5C (JARID1C) it was less than 0.25 µM; at KDM7 (PHF8), less than 0.25 µM; at KDM6B (JMJD3), 0.25 to 2.5 µM; at KDM4C (JMJD2C), 0.25 to 2.5 µM; on KDM5B (PLU-1) it was less than 0.25 µM.
